The record followed here is patent publication US10028934B2, “Substituted indazole derivatives active as kinase inhibitiors” (NERVIANO MEDICAL SCIENCES S.R.L., priority 2011, dated 2018).

The target in assay [1] is KIT kinase (GST-KIT cytoplasmic domain) (Homo sapiens (Human), UniProt P10721). Description: Biochemical assay for inhibitors of KIT kinase activity. The settings on record: pre activated enzyme 4 nM, 4.4 microM ATP, 60 minutes at r.t. How it is done:
The GST-KIT cytoplasmic domain has been expressed in Sf21 cells infected for 66 hrs at 27° C. The recombinant protein has been purified by affinity on GSH-sepharose and eluted with glutathione. […] At the end of the phosphorylation reaction, the not reacted ATP, cold and radioactive, was captured by an excess of dowex ion exchange resin that eventually settled by gravity to the bottom of the reaction plate. […] 500 g of wet resin (SIGMA, custom prepared resin DOWEX 1×8 200-400 mesh, 2.5 Kg) were weighed out and diluted to 2 L in 150 mM sodium formate, pH 3.00. The resin was allowed to settle down overnight and then the supernatant was discarded. After three washes as above over a couple of days, the resin was allowed to settle and two volumes (with respect to the resin volume) were added of 150 mM sodium formate buffer. […] NO: 2). The peptide was purchased from American Peptide Company (Sunnyvale, Calif.). […] An automated station for serial dilutions (Biomek FX, Beckman) was used for producing 1:3 dilutions in 100% DMSO, from line A1 to A10, and for all the compounds in the column. […] The following dispensation into the plates plus 3 cycles of mixing, done by the robot itself, started the kinase reaction. At this point, the correct concentrations were restored for all the reagents. […]

For the next assay, the system named is MOLM-13 cells. The assay can be described thus: In vitro cell proliferation assay, MOLM-13 (CellTiter-Glo). In kind it is cell-based. As to conditions: human acute leukemia cells bearing FLT3-ITD mutation, 72 h. How it is done:
(§1) The human acute leukemia MOLM-13 AND MV-4-11 cells, bearing a FLT3-ITD mutation, were seeded (5000 cells/well) in white 384 well-plates in complete medium (RPMI 1640 plus 10% Fetal bovine serum) and treated with compounds dissolved in 0.1% DMSO, 24 h after seeding. The cells were incubated at 37° C. and 5% CO2 and after 72 h the plates were processed using CellTiter-Glo assay (Promega) following the manufacturer's instruction.
(§2) CellTiter-Glo is a homogenous method based on the quantification of the ATP present, an indicator of metabolitically active cells. ATP was quantified using a system based on luciferase and D-luciferin resultant into light generation. The luminescent signal was proportional to the number of cells present in culture. Briefly, 25 microL/well reagent solution were added to each well and, after 5 minutes shaking, microplates were read by Envision (PerkinElmer) luminometer. Inhibitory activity was evaluated comparing treated versus control data using Symyx Assay Explorer (Symyx Technologies Inc.) program. IC50 was calculated using sigmoidal interpolation curve.
For orientation: ATP-based viability assays read luminescence as a measure of living cells.

The next assay concerns MV-4-11 cells. The assay can be described thus: In vitro cell proliferation assay, MV-4-11 (CellTiter-Glo). In kind it is cell-based. The settings on record: MV4-11; human acute leukemia cells bearing FLT3-ITD mutation, 72 h. How it is done:
as §1, §2

The structures appear in SMILES notation. Some results are limits rather than exact numbers.

Sequence of KIT kinase (GST-KIT cytoplasmic domain) (P10721 544-976): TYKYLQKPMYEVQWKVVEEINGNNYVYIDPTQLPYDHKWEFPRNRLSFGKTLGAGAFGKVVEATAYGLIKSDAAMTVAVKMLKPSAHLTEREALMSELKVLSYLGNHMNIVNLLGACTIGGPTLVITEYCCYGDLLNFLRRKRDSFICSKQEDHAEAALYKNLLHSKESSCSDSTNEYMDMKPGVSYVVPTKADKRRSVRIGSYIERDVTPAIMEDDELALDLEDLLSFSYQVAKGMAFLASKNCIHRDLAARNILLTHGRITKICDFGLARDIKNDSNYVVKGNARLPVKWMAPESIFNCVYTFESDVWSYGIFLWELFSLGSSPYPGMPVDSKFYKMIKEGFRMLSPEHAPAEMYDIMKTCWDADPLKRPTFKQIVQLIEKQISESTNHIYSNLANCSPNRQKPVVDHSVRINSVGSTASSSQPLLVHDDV

For orientation: IC50 means the concentration that inhibits the measured activity by half. A high value points to lower potency. `CN1CCN(c2ccc(C(=O)Nc3n[nH]c4cc(OCCOCc5ccc(F)cc5)ccc34)cc2)CC1` [Cpd. 32]: the IC50 in assay [1] was 50 nM; in the assay on MOLM-13 cells, under 50 nM; in the assay on MV-4-11 cells it was under 50 nM.
With `CN1CCN(c2ccc(C(=O)Nc3n[nH]c4cc(OCCOCc5ccc(C(F)(F)F)cc5)ccc34)cc2)CC1` [Cpd. 33, 4-(4-Methyl-piperazin-1-yl)-N-{6-[2-(4-trifluoromethyl-benzyloxy)-ethoxy]-1H-indazol-3-yl}-benzamide], the 50% inhibitory concentration (IC50) in assay [1] was 50 nM; with MOLM-13 cells, under 50 nM; with MV-4-11 cells, under 50 nM.
